Data taken from patent publication EP1207395A1, “METHOD FOR MEASURING KINASE ACTIVITY OF CYCLIN/CDK COMPLEX” (Medical & Biological Laboratories Co., Ltd., priority 1999, dated 2001).

Experiments:
CDK4 [1] = target: T1, CDK4 (Homo sapiens, UniProt P11802); details: reported in the literature (Meijer et al. 1997); cited from earlier work
cyclin D1/CDK4 complex = target: T2, cyclin D1/CDK4 complex (Homo sapiens, UniProt P11802); experiment: ELISA method, inhibitory effect on cyclin D1/CDK4 complex; type: biochemical; details: for OD levels (inhibitory effect): RB301 substrate, 100 µM ATP, Figs. 5 and 9
T2 construct: 6xHis (N); made in house; host or cells: Sf9 insect cells (baculovirus)
Description: (§1) Clone 1C12 (specific to Thr356), clone 4E4 (specific to Ser612), and clone 2C4 (specific to Ser780) were used as the anti-phosphorylated RB monoclonal antibodies. Each anti-phosphorylated RB monoclonal antibody was diluted to a concentration of 10 µg/ml in PBS, and 100 µl of the diluted solution was added to each well of the plate followed by incubating at 4 °C for 15 hours. After removing the antibody solution, the reaction product in each well was blocked at 4°C for 24 hours in a PBS solution (5% sucrose, 0.1% NaN3) containing 2.5% of BSA. The plate was subjected to measurements after airdrying.
The RB amino acid sequence 301aa-928aa was expressed as a GST fusion protein in Escherichia coli, and the protein (RB301) purified using glutathione Sepharose and phosho-Cellulose columns (P11) was used as the substrate. Cyclin D1/CDK4, cyclin A/CDK2, cyclin E/CDK2, and cyclin B/CDK1, respectively, were expressed in the sf9 cells using baculovirus, and were purified using a cobalt column and phospho-Cellulose column in order to use them as the cyclin/CDK complexes.
(§2) RB301 (10µg/ml), 100µM ATP, and respective Cyclin/CDK were added to the phosphate buffer (50 mM HEPES, 0.05% Triton X, 15 mM MgCl2, 2 mM EGTA, 200 µg/ml BSA) (final reaction volume of 180 µl), and was reacted for 30 minutes at 30°C. The reaction was stopped by adding 180 µl of PBS (10% skim milk, 350 mM NaCl, 50 mM EDTA) to each assay system.
After completing the phosphorylation reaction, 100 µl of each of the reaction solutions was added to the antibody sensitization plate, which was incubated at room temperature for 1 hour (primary reaction). After washing with PBS [washing solution: PBS (500 mM NaCl, 0.1% Tween 20)] five times using a wash-bottle, 100 µl of anti-GST polyclonal antibody solution (0.5 µg/ml) was added to each well of the microplate, followed by incubation at room temperature for 1 hour (secondary reaction). After washing with PBS [washing solution: PBS (500 mM NaCl, 0.1% Tween 20)] five times using a wash-bottle, 100 µl of HRP labeled anti-rabbit IgG antibody solution (20,000-fold dilution) was added to each well of the microplate, followed by incubation at room temperature for 30 minutes (tertiary reaction). Then, the reaction solution was colored (coloring reaction) at room temperature for 30 minutes using TMB (tetramethylbentidine).

cyclin B/CDK1 complex = target: T3, cyclin B/CDK1 complex (Homo sapiens, UniProt P06493); type: biochemical; details: ELISA method; RB301 substrate, 100 µM ATP; Figs. 2 and 6
T3 construct: 6xHis (N); made in house; host or cells: Sf9 insect cells (baculovirus)
Description: as §1
(§3) Cyclin D1/CDK4, cyclin A/CDK2, cyclin E/CDK2, and cyclin B/CDK1, respectively, were expressed in the sf9 cells using baculovirus, and were purified using a cobalt column and phospho-Cellulose column in order to use them as the cyclin/CDK complexes.
as §2
(§4) After completing the phosphorylation reaction, 100 µl of each of the reaction solutions was added to the antibody sensitization plate, which was incubated at room temperature for 1 hour (primary reaction). […]

cyclin A/CDK2 complex = target: T4, cyclin A/CDK2 complex (Homo sapiens, UniProt P24941); experiment: ELISA method, inhibitory effect on cyclin A/CDK2 complex; type: biochemical; details: RB301 substrate, 100 µM ATP, Figs. 3 and 7
T4 construct: 6xHis (N); made in house; host or cells: Sf9 insect cells (baculovirus)
Description: as §1, §3, §2, §4

PKC = details: against PKC; nominal value of commercially available reagent; cited from earlier work
cyclin E/CDK2 complex = target: T5, cyclin E/CDK2 complex (Homo sapiens, UniProt P24941); experiment: ELISA method, inhibitory effect on cyclin E/CDK2 complex; type: biochemical; details: RB301 substrate, 100 µM ATP, Figs. 4 and 8
T5 construct: 6xHis (N); made in house; host or cells: Sf9 insect cells (baculovirus)
Description: as §1, §3, §2, §4

cdk2 = cdk2 (Homo sapiens, UniProt P24941); details: against CDK2; nominal value; cited from earlier work
MEK = details: inhibitor to MEK; nominal value of commercially available reagent; cited from earlier work
CDK4 [2] = target: T1, CDK4; details: against CDK4; nominal value; cited from earlier work

T2 sequence (P11802 whole entry): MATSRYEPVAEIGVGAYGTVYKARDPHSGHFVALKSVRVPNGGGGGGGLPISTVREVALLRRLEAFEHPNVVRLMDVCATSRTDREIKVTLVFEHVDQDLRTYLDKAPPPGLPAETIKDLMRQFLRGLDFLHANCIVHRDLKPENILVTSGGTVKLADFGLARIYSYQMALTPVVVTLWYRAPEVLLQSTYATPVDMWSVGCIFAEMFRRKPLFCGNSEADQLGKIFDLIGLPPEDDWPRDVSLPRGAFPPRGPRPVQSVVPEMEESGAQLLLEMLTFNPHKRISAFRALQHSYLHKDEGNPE
T2 sequence (P24385 whole entry partner): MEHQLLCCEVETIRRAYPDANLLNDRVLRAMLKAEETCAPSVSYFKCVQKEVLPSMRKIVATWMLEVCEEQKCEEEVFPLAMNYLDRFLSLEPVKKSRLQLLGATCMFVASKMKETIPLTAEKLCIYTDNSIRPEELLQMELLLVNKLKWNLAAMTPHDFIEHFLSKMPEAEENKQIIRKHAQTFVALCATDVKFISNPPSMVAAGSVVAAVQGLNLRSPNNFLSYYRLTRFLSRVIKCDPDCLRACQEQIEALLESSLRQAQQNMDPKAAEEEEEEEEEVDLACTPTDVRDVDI
T1 sequence (P11802 whole entry, species assumed): as the sequence (P11802 whole entry) above
T1 sequence (P24385 whole entry partner, species assumed): as the sequence (P24385 whole entry partner) above
T3 sequence (P06493 whole entry): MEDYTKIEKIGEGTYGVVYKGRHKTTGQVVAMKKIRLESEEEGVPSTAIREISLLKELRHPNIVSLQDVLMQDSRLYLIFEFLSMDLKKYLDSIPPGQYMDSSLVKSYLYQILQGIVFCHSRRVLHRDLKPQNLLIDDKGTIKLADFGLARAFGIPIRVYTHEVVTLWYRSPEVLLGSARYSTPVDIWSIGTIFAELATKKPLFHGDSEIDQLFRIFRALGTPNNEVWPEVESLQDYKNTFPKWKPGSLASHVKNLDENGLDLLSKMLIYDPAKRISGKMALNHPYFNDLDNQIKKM
T3 sequence (P14635 whole entry partner): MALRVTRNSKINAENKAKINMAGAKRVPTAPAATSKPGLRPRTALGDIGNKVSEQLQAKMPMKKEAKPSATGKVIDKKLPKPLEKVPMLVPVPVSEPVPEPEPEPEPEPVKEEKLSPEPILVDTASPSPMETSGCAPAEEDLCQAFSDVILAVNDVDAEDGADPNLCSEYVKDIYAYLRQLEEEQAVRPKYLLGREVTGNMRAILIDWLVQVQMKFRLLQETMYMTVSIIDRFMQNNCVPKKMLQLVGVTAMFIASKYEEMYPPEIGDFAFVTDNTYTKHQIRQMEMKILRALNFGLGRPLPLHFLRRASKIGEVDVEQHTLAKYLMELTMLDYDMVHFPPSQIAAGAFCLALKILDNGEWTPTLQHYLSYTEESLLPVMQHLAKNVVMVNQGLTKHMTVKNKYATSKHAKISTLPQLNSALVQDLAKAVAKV

Compound | inhibitory effect on cdk4 (CDK4 [1]) | inhibitory effect on cyclin D1/CDK4 compared with the other three cyclin/CDK complexes (cyclin D1/CDK4 complex) | OD levels (inhibitory effect) (cyclin D1/CDK4 complex) | OD levels (inhibitory effect) (cyclin B/CDK1 complex) | OD levels (inhibitory effect) (cyclin A/CDK2 complex) | Ki (PKC) [nM] | OD levels (inhibitory effect) (cyclin E/CDK2 complex) | IC50 (cdk2) [nM] | IC50 (MEK) [nM] | IC50 (CDK4 [2]) [nM]
CC[C@H](CO)Nc1nc(NCc2ccccc2)c2ncn(C(C)C)c2n1 [Roscovitine] | remarkably weak inhibitory effect | weaker than those on the other three cyclin/CDK complexes | decreased in a inhibitor concentration-dependent manner | – | – | – | – | – | – | –
COC(=O)[C@@]1(O)C[C@H]2O[C@]1(C)n1c3ccccc3c3c4c(c5c6ccccc6n2c5c31)C(=O)NC4 [K252a] | – | – | decreased in a inhibitor concentration-dependent manner | decreased in a inhibitor concentration-dependent manner | decreased in a inhibitor concentration-dependent manner | 25 | decreased in a inhibitor concentration-dependent manner | – | – | –
N#CC(=C(/N)Sc1ccccc1N)/C(C#N)=C(\N)Sc1ccccc1N [U0126] | – | – | almost no decrease in the OD value | – | almost no decrease in the OD value | – | almost no decrease in the OD value | > 10000 | 55 | > 10000
Cn1cnc2nc(NCCO)nc(NCc3ccccc3)c21 [Olomoucine-isomer] | – | – | almost no decrease in the OD value | – | – | – | – | – | – | –
